# Where two headings read alike, the source gives them in different places. Where no end group is shown, it is not given here.
# Tests used:
# [1] = system: P. cibarius HNCF44W (blaNDM-1+ tet(X6)); assay: organism not typed; assay type: cell-based
# Protocol: (§1) S. aureus ATCC 29213, E. coli ATCC 25922, S. enteritidis ATCC 13076 and A. baumannii ATCC 19609 were obtained from the American Type Culture Collection (ATCC). The remaining strains used in the experiment were all preserved strains in our laboratory. All strains were cultured in nutrient broth overnight to the logarithmic phase at 37 °C prior to each experiment.
# (§2) The MICs of all drugs were determined by micro-broth dilution method according to CLSI 2018 guidelines. Briefly, a single colony of the bacterial strain was transferred to 1 mL of Mueller Hilton broth (MHB) and overnight at 37 °C and then 10 μL were cultured in a new 1 mL medium for 4 to 6 h, and then the bacterial culture at the logarithmic phase was diluted to 1 × 10^6 CFUs/mL. The assay was performed by adding 100 μL of each peptide solution at various concentrations (0.25 to 128 μg/mL) and 100 μL of diluted bacterial culture to different wells of a 96-well microtiter plate (Corning, NY, USA). After incubation at 37 °C for 16 to 18 h and then read its MIC value. MIC value is defined as the lowest drug concentration without visible bacteria.
# MRSA T144 [2] = assay: microbe, parasite or virus in culture; assay type: cell-based, Staphylococcus aureus
# Protocol: as §1, §2
# MRSA 1530 = assay: microbe, parasite or virus in culture; assay type: cell-based, Staphylococcus aureus
# Protocol: as §1, §2
# E. coli ATCC 25922 = assay: microbe, parasite or virus in culture; assay type: cell-based
# Protocol: as §1, §2
# A. baumannii ATCC 19609 = assay: microbe, parasite or virus in culture; assay type: cell-based
# Protocol: as §1, §2
# E. coli 1F28 (tet(X4)) = assay: microbe, parasite or virus in culture; assay type: cell-based
# Protocol: as §1, §2
# [3] = system: S. enteritidis ATCC 13076; assay: microbe, parasite or virus in culture; assay type: cell-based
# Protocol: as §1, §2
# [4] = system: P. aeruginosa (VIM + tmexCD1-torJ1); assay: microbe, parasite or virus in culture; assay type: cell-based
# Protocol: as §1, §2
# E. coli C3 (blaNDM-1) = assay: microbe, parasite or virus in culture; assay type: cell-based
# Protocol: as §1, §2
# [5] = system: S. aureus 215 (cfr + LZD^R); assay: microbe, parasite or virus in culture; assay type: cell-based; conditions: S. aureus 215 (cfr + LZD^R); micro-broth dilution CLSI 2018, MHB, 37 °C, 16 to 18 h
# Protocol: as §1, §2
# E. coli G6 (blaNDM-5) = assay: microbe, parasite or virus in culture; assay type: cell-based
# Protocol: as §1, §2
# [6] = system: E. coli B2 (blaNDM-5 + mcr-1); assay: microbe, parasite or virus in culture; assay type: cell-based
# Protocol: as §1, §2
# E. coli B3-1 (tet(X4)) = assay: microbe, parasite or virus in culture; assay type: cell-based
# Protocol: as §1, §2
# [7] = system: E. faecalis A4 (VRE, VanA); assay: microbe, parasite or virus in culture; assay type: cell-based
# Protocol: as §1, §2
# S. aureus G16 (RIF^R) = assay: microbe, parasite or virus in culture; assay type: cell-based; conditions: S. aureus G16 (RIF^R); micro-broth dilution CLSI 2018, MHB, 37 °C, 16 to 18 h
# Protocol: as §1, §2
# P. aeruginosa PA14 = assay: microbe, parasite or virus in culture; assay type: cell-based
# Protocol: as §1, §2
# S. aureus ATCC 29213 = assay: microbe, parasite or virus in culture; assay type: cell-based
# Protocol: as §1, §2
# E. coli CP131 (mcr-3) = assay: microbe, parasite or virus in culture; assay type: cell-based
# Protocol: as §1, §2
# E. coli G92 (mcr-1) = assay: microbe, parasite or virus in culture; assay type: cell-based
# Protocol: as §1, §2
# E. coli B2 = assay type: cell-based
# Protocol: as §2
# (§3) Then, the antibacterial activity of the peptides affected by different temperatures and pH were determined according to the determination steps of MICs test.
# (§4) In MHB medium, Na^+, K^+, Mg^2+ and Ca^2+ with the final concentrations of 10 mM, fetal bovine serum, plasma or DMEM medium (Hyclone, Logan, UT, USA) with the final concentrations of 10% was added, and then MIC values were measured to evaluate the effects of different cations, serum and plasma on the antibacterial activity of peptides.
# (§5) The peptide was incubated with protease (pepsin, trypsin and papain) (Solarbio, Beijing, China) with a final concentration of 1 mg/mL at 37 °C for 1 h, then the mixture of peptide and protease was heated at 100 °C for 30 min, then centrifuged at 13,000× g for 30 min, and the supernatant was taken for MIC determination.
# MRSA T144 [8] = assay type: cell-based, Staphylococcus aureus
# Protocol: as §2, §3, §4, §5
sequence,measurement,setting,value
GWGSFFKKAAHVGK [GK-1],MIC,"[1]; P. cibarius HNCF44W (blaNDM-1+ tet(X6)), micro-broth dilution CLSI 2018, MHB, 37 °C, 16 to 18 h",>128 µg/mL
same,MIC,"MRSA T144 [2]; MRSA T144, micro-broth dilution CLSI 2018, MHB, 37 °C, 16 to 18 h",>128 µg/mL
same,MIC,"MRSA 1530; MRSA 1530, micro-broth dilution CLSI 2018, MHB, 37 °C, 16 to 18 h",>128 µg/mL
same,MIC,"E. coli ATCC 25922; E. coli ATCC 25922, micro-broth dilution CLSI 2018, MHB, 37 °C, 16 to 18 h",>128 µg/mL
same,MIC,"A. baumannii ATCC 19609; A. baumannii ATCC 19609, micro-broth dilution CLSI 2018, MHB, 37 °C, 16 to 18 h",>128 µg/mL
same,MIC,"E. coli 1F28 (tet(X4)); E. coli 1F28 (tet(X4)), micro-broth dilution CLSI 2018, MHB, 37 °C, 16 to 18 h",>128 µg/mL
same,MIC,"[3]; S. enteritidis ATCC 13076, micro-broth dilution CLSI 2018, MHB, 37 °C, 16 to 18 h",>128 µg/mL
same,MIC,"[4]; P. aeruginosa (VIM + tmexCD1-torJ1), micro-broth dilution CLSI 2018, MHB, 37 °C, 16 to 18 h",>128 µg/mL
same,MIC,"E. coli C3 (blaNDM-1); E. coli C3 (blaNDM-1), micro-broth dilution CLSI 2018, MHB, 37 °C, 16 to 18 h",>128 µg/mL
same,MIC,[5],>128 µg/mL
same,MIC,"E. coli G6 (blaNDM-5); E. coli G6 (blaNDM-5), micro-broth dilution CLSI 2018, MHB, 37 °C, 16 to 18 h",>128 µg/mL
same,MIC,"[6]; E. coli B2 (blaNDM-5 + mcr-1), micro-broth dilution CLSI 2018, MHB, 37 °C, 16 to 18 h",>128 µg/mL
same,MIC,"E. coli B3-1 (tet(X4)); E. coli B3-1 (tet(X4)), micro-broth dilution CLSI 2018, MHB, 37 °C, 16 to 18 h",>128 µg/mL
same,MIC,"[7]; E. faecalis A4 (VRE, VanA), micro-broth dilution CLSI 2018, MHB, 37 °C, 16 to 18 h",>128 µg/mL
same,MIC,S. aureus G16 (RIF^R),>128 µg/mL
same,MIC,"P. aeruginosa PA14; P. aeruginosa PA14, micro-broth dilution CLSI 2018, MHB, 37 °C, 16 to 18 h",>128 µg/mL
same,MIC,"S. aureus ATCC 29213; S. aureus ATCC 29213, micro-broth dilution CLSI 2018, MHB, 37 °C, 16 to 18 h",>128 µg/mL
same,MIC,"E. coli CP131 (mcr-3); E. coli CP131 (mcr-3), micro-broth dilution CLSI 2018, MHB, 37 °C, 16 to 18 h",>128 µg/mL
same,MIC,"E. coli G92 (mcr-1); E. coli G92 (mcr-1), micro-broth dilution CLSI 2018, MHB, 37 °C, 16 to 18 h",>128 µg/mL
"GWGSFFKKAAHVGKHVGKAALTHYL [Pleu, Pleurocidin]",MIC,[1],2 µg/mL
same,MIC after treatment at 121 °C,E. coli B2; B2,2 µg/mL
same,MIC in DMEM (10%),E. coli B2; B2,4 µg/mL
same,MIC in Plasma (10%),E. coli B2; B2,<0.25 µg/mL
same,MIC in Serum (10%),E. coli B2; B2,1 µg/mL
same,MIC in presence of Ca^2+,E. coli B2; B2,>128 µg/mL
same,MIC in presence of K^+,E. coli B2; B2,1 µg/mL
same,MIC in presence of Mg^2+,E. coli B2; B2,128 µg/mL
same,MIC in presence of Na^+,E. coli B2; B2,1 µg/mL
same,"MIC, Control",E. coli B2; B2,2 µg/mL
same,MIC after Papain treatment,"E. coli B2; B2, 1 h",>128 µg/mL
same,MIC after Pepsin treatment,"E. coli B2; B2, 1 h",128 µg/mL
same,MIC after Trypsin treatment,"E. coli B2; B2, 1 h",>128 µg/mL
same,MIC after treatment at 40 °C,"E. coli B2; B2, 1 h",1 µg/mL
same,MIC after treatment at 60 °C,"E. coli B2; B2, 1 h",1 µg/mL
same,MIC after treatment at 80 °C,"E. coli B2; B2, 1 h",1 µg/mL
same,MIC after treatment at 100 °C,"E. coli B2; B2, 1 h",2 µg/mL
same,MIC after treatment at pH 2,"E. coli B2; B2, 1 h, pH 2",1 µg/mL
same,MIC after treatment at pH 4,"E. coli B2; B2, 1 h, pH 4",1 µg/mL
same,MIC after treatment at pH 6,"E. coli B2; B2, 1 h, pH 6",1 µg/mL
same,MIC after treatment at pH 8,"E. coli B2; B2, 1 h, pH 8",1 µg/mL
same,MIC after treatment at pH 10,"E. coli B2; B2, 1 h, pH 10",1 µg/mL
same,MIC after treatment at pH 12,"E. coli B2; B2, 1 h, pH 12",1 µg/mL
same,MIC,MRSA T144 [2]; T144,2 µg/mL
same,MIC,MRSA 1530; 1530,8 µg/mL
same,MIC,E. coli ATCC 25922; ATCC 25922,1 µg/mL
same,MIC,A. baumannii ATCC 19609; ATCC 19609,2 µg/mL
same,MIC,E. coli 1F28 (tet(X4)); 1F28 (tet(X4)),4 µg/mL
same,MIC,[3]; ATCC 13076,1 µg/mL
same,MIC,[4]; VIM + tmexCD1-torJ1,4 µg/mL
same,MIC,E. coli C3 (blaNDM-1); C3 (blaNDM-1),1 µg/mL
same,MIC,[5],2 µg/mL
same,MIC,E. coli G6 (blaNDM-5); G6 (blaNDM-5),1 µg/mL
same,MIC,[6]; B2 (blaNDM-5 + mcr-1),2 µg/mL
same,MIC,E. coli B3-1 (tet(X4)); B3-1 (tet(X4)),1 µg/mL
same,MIC,"[7]; A4 (VRE, VanA)",8 µg/mL
same,MIC,S. aureus G16 (RIF^R),2 µg/mL
same,MIC,P. aeruginosa PA14; PA14,1 µg/mL
same,MIC,S. aureus ATCC 29213; ATCC 29213,4 µg/mL
same,MIC,E. coli CP131 (mcr-3); CP131 (mcr-3),1 µg/mL
same,MIC,E. coli G92 (mcr-1); G92 (mcr-1),1 µg/mL
same,MIC after treatment at 121 °C,MRSA T144 [8]; T144,8 µg/mL
same,MIC in DMEM (10%),MRSA T144 [8]; T144,2 µg/mL
same,MIC in Plasma (10%),MRSA T144 [8]; T144,2 µg/mL
same,MIC in Serum (10%),MRSA T144 [8]; T144,4 µg/mL
same,MIC in presence of Ca^2+,MRSA T144 [8]; T144,>128 µg/mL
same,MIC in presence of K^+,MRSA T144 [8]; T144,2 µg/mL
same,MIC in presence of Mg^2+,MRSA T144 [8]; T144,8 µg/mL
same,MIC in presence of Na^+,MRSA T144 [8]; T144,2 µg/mL
same,"MIC, Control",MRSA T144 [8]; T144,2 µg/mL
same,MIC after Papain treatment,"MRSA T144 [8]; T144, 1 h",>128 µg/mL
same,MIC after Pepsin treatment,"MRSA T144 [8]; T144, 1 h",64 µg/mL
same,MIC after Trypsin treatment,"MRSA T144 [8]; T144, 1 h",>128 µg/mL
same,MIC after treatment at 40 °C,"MRSA T144 [8]; T144, 1 h",2 µg/mL
same,MIC after treatment at 60 °C,"MRSA T144 [8]; T144, 1 h",1 µg/mL
same,MIC after treatment at 80 °C,"MRSA T144 [8]; T144, 1 h",2 µg/mL
same,MIC after treatment at 100 °C,"MRSA T144 [8]; T144, 1 h",4 µg/mL
same,MIC after treatment at pH 2,"MRSA T144 [8]; T144, 1 h, pH 2",4 µg/mL
same,MIC after treatment at pH 4,"MRSA T144 [8]; T144, 1 h, pH 4",4 µg/mL
same,MIC after treatment at pH 6,"MRSA T144 [8]; T144, 1 h, pH 6",2 µg/mL
same,MIC after treatment at pH 8,"MRSA T144 [8]; T144, 1 h, pH 8",4 µg/mL
same,MIC after treatment at pH 10,"MRSA T144 [8]; T144, 1 h, pH 10",4 µg/mL
same,MIC after treatment at pH 12,"MRSA T144 [8]; T144, 1 h, pH 12",4 µg/mL

# From publication PMC9610943, “Truncated Pleurocidin Derivative with High Pepsin Hydrolysis Resistance to Combat Multidrug-Resistant Pathogens” (Pharmaceutics, 2022)
